pEC50: −log10 of the molar value. Entries after “also recorded” stand apart in the source; their conditions may differ.
Tests used:
[1] = tested on: granulocyte progenitor (Gran-lin prog); test: MLTA, GranP: concentration-response and QSP model fit; type: cell-based, human; conditions: Homo sapiens, 144 h
Method in brief: (§1)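 Drug was added at time 0 to thawed human bone marrow CD34+ cells in SFEM II plus a cytokine cocktail. After 6 days at 37°C, subsets were counted by surface-marker flow with TruCount beads. Vehicle-normalized, donor-pooled data then fed an Emax model separating anti-proliferative from cell-killing effects.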

[2] = tested on: late erythroid cells (Eryth II); test: MLTA, ErythII: concentration-response and QSP model fit; type: cell-based, human; conditions: Homo sapiens, 144 h
Method in brief: (§2)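 Freeze-thawed primary human bone marrow CD34+ cells were grown in SFEM II with a multi-lineage cytokine cocktail, drug added day 0, six days at 37°C. Lineage counts came from 17-parameter flow with TruCount beads, vehicle-normalized per donor, then fitted by an Emax-based QSP model.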

[3] = tested on: human bone marrow-derived CD34+ cells differentiated into multiple hematopoietic lineages; test: MLTA, overall effects across hematopoietic lineages; type: cell-based; conditions: 0.2-2500 nM, 6 days, relative to vehicle control
Method in brief: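 Thawed primary human bone marrow CD34+ cells grown in SFEM II with a multi-lineage cytokine cocktail, drug added day 0, 6 days at 37°C, 5% CO2. Subsets counted by 17-parameter flow cytometry with TruCount beads, normalized to six vehicle wells per donor (2–7 donors); Emax model fitted per cell type.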

[4] = tested on: multi-potent progenitors (MPPs); test: MLTA, MPPs: concentration-response and QSP model fit; type: cell-based, human; conditions: Homo sapiens, 144 h
Method in brief: as §2

[5] = tested on: early erythroid cells (Eryth I); test: MLTA, ErythI: concentration-response and QSP model fit; type: cell-based, human; conditions: Homo sapiens, 144 h
Method in brief: as §1

MK cells (MK-lin) = test: MLTA, MK: concentration-response and QSP model fit; type: cell-based, human; conditions: Homo sapiens, 144 h
Method in brief: as §2

[6] = tested on: hematopoietic stem cells (HSCs); test: Multi-lineage toxicity assay (MLTA), HSCs: concentration-response and QSP model fit; type: cell-based, human; conditions: Homo sapiens, Hematopoietic stem cell, 144 h
Method in brief: as §2

[7] = tested on: neutrophils (neutrophil-lin); test: MLTA, Neut: concentration-response and QSP model fit; type: cell-based, human; conditions: Homo sapiens, Neutrophil, 144 h
Method in brief: as §2

[8] = QSP model fit of 6-day MLTA data

CS(=O)(=O)N1CCN(Cc2cc3nc(-c4cccc5[nH]ncc45)nc(N4CCOCC4)c3s2)CC1 [pictilisib]
pEC50 ([1]; QSP model fit of 6-day MLTA data, read-out: EC50GranP): 7.03 | activity at 0.0002 µM ([1]; dose 0.2 nM, 6 days, normalized to vehicle control, read-out: GranPs normalized cell count): 95.5% | activity at 0.001 µM ([1]; dose 1 nM, 6 days, normalized to vehicle control, read-out: GranPs normalized cell count): 100% | activity at 0.005 µM ([1]; dose 5 nM, 6 days, normalized to vehicle control, read-out: GranPs normalized cell count): 101% | activity at 0.025 µM ([1]; dose 25 nM, 6 days, normalized to vehicle control, read-out: GranPs normalized cell count): 84% | activity at 0.1 µM ([1]; dose 100 nM, 6 days, normalized to vehicle control, read-out: GranPs normalized cell count): 70.2% | activity at 0.5 µM ([1]; dose 500 nM, 6 days, normalized to vehicle control, read-out: GranPs normalized cell count): 60.8% | activity at 2.5 µM ([1]; dose 2500 nM, 6 days, normalized to vehicle control, read-out: GranPs normalized cell count): 28.4% | Emax ([1]; parameter from QSP model fitting, read-out: Emax_drug_GranP): 60.5% | pEC50 ([2]; QSP model fit of 6-day MLTA data, read-out: EC50ErythII): 6.72 | activity at 0.0002 µM ([2]; dose 0.2 nM, 6 days, normalized to vehicle control, read-out: ErythII normalized cell count): 94.6% | activity at 0.001 µM ([2]; dose 1 nM, 6 days, normalized to vehicle control, read-out: ErythII normalized cell count): 92% | activity at 0.005 µM ([2]; dose 5 nM, 6 days, normalized to vehicle control, read-out: ErythII normalized cell count): 90% | activity at 0.025 µM ([2]; dose 25 nM, 6 days, normalized to vehicle control, read-out: ErythII normalized cell count): 86.7% | activity at 0.1 µM ([2]; dose 100 nM, 6 days, normalized to vehicle control, read-out: ErythII normalized cell count): 55.5% | activity at 0.5 µM ([2]; dose 500 nM, 6 days, normalized to vehicle control, read-out: ErythII normalized cell count): 23.3% | activity at 2.5 µM ([2]; dose 2500 nM, 6 days, normalized to vehicle control, read-out: ErythII normalized cell count): 5.88% | Emax ([2]; parameter from QSP model fitting, read-out: Emax_drug_ErythroidII): 13.6% | effect on hematopoietic cell numbers across cell types [3]: moderate reduction of cells types; also recorded: decreased most cell types | activity at 0.0002 µM ([4]; dose 0.2 nM, 6 days, normalized to vehicle control, read-out: MPPs normalized cell count): 89.3% | activity at 0.001 µM ([4]; dose 1 nM, 6 days, normalized to vehicle control, read-out: MPPs normalized cell count): 82.2% | activity at 0.005 µM ([4]; dose 5 nM, 6 days, normalized to vehicle control, read-out: MPPs normalized cell count): 71.7% | activity at 0.025 µM ([4]; dose 25 nM, 6 days, normalized to vehicle control, read-out: MPPs normalized cell count): 67.2% | activity at 0.1 µM ([4]; dose 100 nM, 6 days, normalized to vehicle control, read-out: MPPs normalized cell count): 49.1% | activity at 0.5 µM ([4]; dose 500 nM, 6 days, normalized to vehicle control, read-out: MPPs normalized cell count): 38.2% | activity at 2.5 µM ([4]; dose 2500 nM, 6 days, normalized to vehicle control, read-out: MPPs normalized cell count): 28% | Emax ([4]; parameter from QSP model fitting, read-out: Emax_drug_MPP): 0.03% | activity at 0.0002 µM ([5]; dose 0.2 nM, 6 days, normalized to vehicle control, read-out: ErythI normalized cell count): 110% | activity at 0.001 µM ([5]; dose 1 nM, 6 days, normalized to vehicle control, read-out: ErythI normalized cell count): 107% | activity at 0.005 µM ([5]; dose 5 nM, 6 days, normalized to vehicle control, read-out: ErythI normalized cell count): 107% | activity at 0.025 µM ([5]; dose 25 nM, 6 days, normalized to vehicle control, read-out: ErythI normalized cell count): 100% | activity at 0.1 µM ([5]; dose 100 nM, 6 days, normalized to vehicle control, read-out: ErythI normalized cell count): 92.8% | activity at 0.5 µM ([5]; dose 500 nM, 6 days, normalized to vehicle control, read-out: ErythI normalized cell count): 65.5% | activity at 2.5 µM ([5]; dose 2500 nM, 6 days, normalized to vehicle control, read-out: ErythI normalized cell count): 27.5% | Emax ([5]; parameter from QSP model fitting, read-out: Emax_drug_ErythroidI): 0.03% | pEC50 (MK cells (MK-lin); [8]): 5.97 | activity at 0.0002 µM (MK cells (MK-lin); dose 0.2 nM, 6 days, normalized to vehicle control, read-out: MK normalized cell count): 100% | activity at 0.001 µM (MK cells (MK-lin); dose 1 nM, 6 days, normalized to vehicle control, read-out: MK normalized cell count): 107% | activity at 0.005 µM (MK cells (MK-lin); dose 5 nM, 6 days, normalized to vehicle control, read-out: MK normalized cell count): 113% | activity at 0.025 µM (MK cells (MK-lin); dose 25 nM, 6 days, normalized to vehicle control, read-out: MK normalized cell count): 85.6% | activity at 0.1 µM (MK cells (MK-lin); dose 100 nM, 6 days, normalized to vehicle control, read-out: MK normalized cell count): 78.4% | activity at 0.5 µM (MK cells (MK-lin); dose 500 nM, 6 days, normalized to vehicle control, read-out: MK normalized cell count): 49.7% | activity at 2.5 µM (MK cells (MK-lin); dose 2500 nM, 6 days, normalized to vehicle control, read-out: MK normalized cell count): 16.8% | Emax (MK cells (MK-lin); parameter from QSP model fitting, read-out: Emax_drug_MK): 12.3% | pEC50 [6, 8]: 6.54 | activity at 0.0002 µM ([6]; dose 0.2 nM, 6 days, normalized to vehicle control, read-out: HSCs normalized cell count): 89.1% | activity at 0.001 µM ([6]; dose 1 nM, 6 days, normalized to vehicle control, read-out: HSCs normalized cell count): 102% | activity at 0.005 µM ([6]; dose 5 nM, 6 days, normalized to vehicle control, read-out: HSCs normalized cell count): 88.5% | activity at 0.025 µM ([6]; dose 25 nM, 6 days, normalized to vehicle control, read-out: HSCs normalized cell count): 99.2% | activity at 0.1 µM ([6]; dose 100 nM, 6 days, normalized to vehicle control, read-out: HSCs normalized cell count): 58.1% | activity at 0.5 µM ([6]; dose 500 nM, 6 days, normalized to vehicle control, read-out: HSCs normalized cell count): 28.1% | activity at 2.5 µM ([6]; dose 2500 nM, 6 days, normalized to vehicle control, read-out: HSCs normalized cell count): 8.09% | Emax ([6]; parameter from QSP model fitting, read-out: Emax_drug_HSC): 48.6% | pEC50 [7, 8]: 6.88 | activity at 0.0002 µM ([7]; dose 0.2 nM, 6 days, normalized to vehicle control, read-out: Neut normalized cell count): 92.7% | activity at 0.001 µM ([7]; dose 1 nM, 6 days, normalized to vehicle control, read-out: Neut normalized cell count): 82.6% | activity at 0.005 µM ([7]; dose 5 nM, 6 days, normalized to vehicle control, read-out: Neut normalized cell count): 64.5% | activity at 0.025 µM ([7]; dose 25 nM, 6 days, normalized to vehicle control, read-out: Neut normalized cell count): 59.8% | activity at 0.1 µM ([7]; dose 100 nM, 6 days, normalized to vehicle control, read-out: Neut normalized cell count): 30.4% | activity at 0.5 µM ([7]; dose 500 nM, 6 days, normalized to vehicle control, read-out: Neut normalized cell count): 6.17% | activity at 2.5 µM ([7]; dose 2500 nM, 6 days, normalized to vehicle control, read-out: Neut normalized cell count): 0.529% | Emax ([7]; parameter from QSP model fitting, read-out: Emax_drug_Neut): 16.5%
